These results are taken from patent US20190291112A1, “DROPLET MICROFLUIDICS FOR DRUG SCREENING” (University of Macau, priority 2018, published 2019).

For the assay, the system named is NAS1605 primary nasopharyngeal tumor sample. In words: On chip drug screening of primary tumor dissociated cells. It is filed as cell-based, human. Particulars: NAS1605, 16-24 h, normalized to mock treatment. Here is the method:
All human studies were conducted with the approval of the Panel on Research Ethics of University of Macau and the Research Ethics Committee of Kiang Wu Hospital, according to the Materials Transfer Agreement between University of Macau and Kiang Wu Hospital. Informed consent for sampling and publication without identifiable information was obtained from all participating patients. All patient sample names were double encoded by the university and the hospital, respectively, to remove any trace of patient identity during sample collection, transfer, processing and analysis. Primary tumors were obtained from surgery conducted at Kiang Wu Hospital immediately after tumor resection. Tumor tissue was dissociated as previously described. Briefly, tumor tissue was first cut into small pieces by a scalpel, then transferred to a 50 mL conical tube containing 5 mL Digestion Buffer I (DMEM/F12 medium containing 5% FBS, 5 μg/mL insulin, 500 ng/mL hydrocortisone, 10 ng/mL epidermal growth factor (EGF), 20 ng/mL cholera toxin, 300 U/mL collagenase III and 100 U/mL hyaluronidase), and digested for no more than 12 h with shaking at 100 rpm in humidified incubator at 37° C. supplemented with 5% CO2. After spinning down at 400 g at ambient temperature for 2 min, the cells were resuspended with 2 mL Digestion Buffer II (DMEM/F12 medium containing 5 mg/mL dispase II and 0.1 mg/mL deoxyribonuclease I), followed by digestion at ambient temperature for 5 min. The cells were then washed with 10 mL HBSS (Life Technologies, USA). […]
Briefly, cells at final concentrations of 1-2×10^6 cells per mL were aliquoted in 0.2 mL PCR tubes, then mixed with corresponding drugs and 2 μM ethidium homodimer 1 (Life Technologies, USA) by manual pipetting. […] Brightfield and red fluorescence images (Ex. 531/40 nm, Em. 593/40 nm) were taken under 10× magnification (Life Technologies EVOS FL Imaging System, USA).
For on chip assays, the number of cells was counted in brightfield and red fluorescence images from each well respectively. Cell viability was calculated as follows: […]

With `CC(C)C[C@H](NC(=O)[C@H](Cc1ccccc1)NC(=O)c1cnccn1)B(O)O` [bortezomib], the “dose dependence of normalized cell viability” value was “dose-dependent reduction of cell viability”.
